From PubChem BioAssay (NCI)
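1) Cells in 96-well plates. 2) Compound, 48 h, 5 concentrations. 3) Linear interpolation between surrounding doses. 4) Unreached endpoint = highest concentration. At the GI50, growth is halved. TGI marks complete inhibition of growth.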

Legend:
Assay in all cases: inhibition of tumour cell growth, NCI panel, 48 h
K-562 leukemia = test system: K-562 leukemia
MALME-3M melanoma = test system: MALME-3M melanoma
MOLT-4 leukemia = test system: MOLT-4 leukemia
NCI-H522 lung = test system: NCI-H522 lung
SF-539 CNS = test system: SF-539 CNS
SK-MEL-28 melanoma = test system: SK-MEL-28 melanoma
SNB-75 CNS = test system: SNB-75 CNS
UACC-257 melanoma = test system: UACC-257 melanoma
RPMI-8226 leukemia = test system: RPMI-8226 leukemia
NCI/ADR-RES ovarian = test system: NCI/ADR-RES ovarian

SMILES	TGI (K-562 leukemia)	TGI (MALME-3M melanoma)	TGI (MOLT-4 leukemia)	TGI (NCI-H522 lung)	TGI (SF-539 CNS)	TGI (SK-MEL-28 melanoma)	TGI (SNB-75 CNS)	TGI (UACC-257 melanoma)	TGI (RPMI-8226 leukemia)	GI50 (MALME-3M melanoma)	GI50 (MOLT-4 leukemia)	GI50 (NCI-H522 lung)	GI50 (NCI/ADR-RES ovarian)	TGI (NCI/ADR-RES ovarian)	GI50 (RPMI-8226 leukemia)	GI50 (SF-539 CNS)	GI50 (SK-MEL-28 melanoma)	GI50 (SNB-75 CNS)	GI50 (UACC-257 melanoma)	GI50 (K-562 leukemia)
CCOC(=O)c1nc(C)oc1C(F)(F)F	> 100 µM	> 100 µM	> 100 µM	> 100 µM	> 100 µM	> 100 µM	> 100 µM	> 100 µM	–	–	–	–	–	–	–	–	–	–	–	–
O=C1/C(=C\c2ccccc2)CN(C(=O)CCN2CCCCC2)C/C1=C/c1ccccc1	0.799 µM	5.44 µM	0.714 µM	2.31 µM	5.52 µM	5.69 µM	6.79 µM	3.52 µM	0.244 µM	–	–	–	–	–	–	–	–	–	–	–
Cc1ccc(S(=O)(=O)OCC/C(=C\[Si](C)(C)C)c2ccccc2)cc1	> 100 µM	> 100 µM	> 100 µM	> 100 µM	> 100 µM	> 100 µM	> 100 µM	> 100 µM	> 100 µM	–	–	–	–	–	–	–	–	–	–	–
CCN(CC)CCCNc1ccc(C)c2sc3ccccc3c(=O)c12	–	0.402 µM	1.35 µM	15.9 µM	2.81 µM	0.435 µM	26.1 µM	0.54 µM	1.34 µM	0.193 µM	0.384 µM	3.08 µM	1.4 µM	4.48 µM	0.33 µM	1.3 µM	0.201 µM	5.2 µM	0.23 µM	–
CCNc1nc(O)c(/C=C2\C=Nc3ncccc32)s1	> 100 µM	–	12.6 µM	8.83 µM	3.7 µM	13.8 µM	4.25 µM	15.5 µM	68 µM	–	3.21 µM	1.25 µM	10.5 µM	> 100 µM	11.7 µM	1.51 µM	2.72 µM	1.92 µM	4.17 µM	10 µM
COc1nc2c(c(O)c(C)c(=O)n2OC2OCC(OC(C)=O)C(OC(C)=O)C2OC(C)=O)c(=O)n1C (configuration not stated)	> 100 µM	–	> 100 µM	> 100 µM	> 100 µM	> 100 µM	> 100 µM	–	–	–	–	–	–	–	–	–	–	–	–	–
CCc1ccccc1NC(=O)c1cccc([N+](=O)[O-])c1O	> 100 µM	> 100 µM	> 100 µM	62.6 µM	> 100 µM	> 100 µM	71.8 µM	77 µM	> 100 µM	–	–	–	–	–	–	–	–	–	–	–
O=C(NC1C(=O)NNC1c1cccc([N+](=O)[O-])c1)c1ccccc1 (configuration not stated)	–	> 100 µM	> 100 µM	–	–	> 100 µM	> 100 µM	> 100 µM	> 100 µM	–	–	–	–	–	–	–	–	–	–	–
CCCCCCCCCCCC[N+]1(CCCCCCCCCCCC)CCCC(C)C1 (configuration not stated)	–	–	–	–	–	1.73 µM	1.63 µM	–	–	–	–	–	4.41 µM	> 100 µM	–	–	0.487 µM	0.349 µM	–	–
O=C1CC(c2ccccc2)Oc2ccccc21 (configuration not stated)	32.6 µM	–	34.4 µM	–	55 µM	> 100 µM	> 100 µM	> 100 µM	37.9 µM	–	–	–	–	> 100 µM	–	–	–	–	–	–
